The nature of this data set: recombinant barcode read abundance after kanamycin selection (control-corrected) (log10(CPM+1)); higher = more efficient recombination; sequences stand for … in AGTGCAGAGAAAATCGGCCAGTTTTCTCTGCCTGCAGTCCGCATGCCGT…AGATTTATGCAGCGGACTGCCTTTCTCCCAAAGTGATAAACCGGACAGTATCATGGACCGGTTTTCCCGGTAATCCGTATTTGCAAGGTTGGTTTCACT; site = the 11-nt target. The essentials: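 Duplicate cultures were plated either on chloramphenicol/ampicillin LB agar, serving as control, or on chloramphenicol/ampicillin/kanamycin with 0.1 mM IPTG. These came from a pooled E. coli library co-electroporated with a donor plasmid, each member pairing a target with an IS621 bridge RNA target-binding loop. Recombination efficiency equals averaged, control-corrected counts per million of recombinant-junction barcodes. It is listed as log10(CPM+1).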
“GTACGTCCTTGGGTTCTAACCTGTTGCTT (site GTACGTCCTAG)”: the “recombinant barcode read abundance (log10)” value worked out at 0.299.

As to “GTACGTCCTTGGGTTCTAACCTGTTGCTT (site GTACGTCCTAT)”, the “recombinant barcode read abundance (log10)” value amounted to 0.374.

In the case of “GTACTGCCTTGGGTTCTAACCTGTTGCCT (site GTACAGCCTAG)”, the “recombinant barcode read abundance (log10)” value stood at 0.52.

For the sequence “GTACTGCCTTGGGTTCTAACCTGTTGCCT (site GTACCGCCTAG)”, the “recombinant barcode read abundance (log10)” value was found to be 0.366.

On to “GTACTGCCTTGGGTTCTAACCTGTTGCCT (site GTACGGCCTAG)”, for which the “recombinant barcode read abundance (log10)” value worked out at 0.531.

In the case of “GTACTGCCTTGGGTTCTAACCTGTTGCCT (site GTACTGCCTAG)”, the “recombinant barcode read abundance (log10)” value amounted to 1.28.

With “GTAGACACTTGGGTTCTAACCTGTTGCCG (site GTAAACACTCT)”, the “recombinant barcode read abundance (log10)” value turned out to be 0.142.

For “GTAGACACTTGGGTTCTAACCTGTTGCCG (site GTAGACACTCG)”, the “recombinant barcode read abundance (log10)” value amounted to 1.28.

As for “GTAGACCCTTGGGTTCTAACCTGTTGCCT (site ATAGACCCTAG)”, the “recombinant barcode read abundance (log10)” value turned out to be 2.3.

Turning to “GTAGACCCTTGGGTTCTAACCTGTTGCCT (site CTAGACCCTAG)”, the “recombinant barcode read abundance (log10)” value was found to be 1.16.

Regarding “GTAGACCCTTGGGTTCTAACCTGTTGCCT (site GTAGACCCTAG)”, the “recombinant barcode read abundance (log10)” value was determined as 2.5.

Take “GTAGACCCTTGGGTTCTAACCTGTTGCCT (site TTAGACCCTAG)”: the “recombinant barcode read abundance (log10)” value is 1.85.

Regarding “GTAGACCCTTGGGTTCTAACCTGTTGCGT (site GTAGACCCTAC)”, the “recombinant barcode read abundance (log10)” value came out at 3.46.

For “GTAGACCCTTGGGTTCTAACCTGTTGCGT (site GTAGACCCTCA)”, the “recombinant barcode read abundance (log10)” value was 0.309.

Turning to “GTAGAGTCTTGGGTTCTAACCTGTTGCCT (site GAAGAGTCTAG)”, the “recombinant barcode read abundance (log10)” value came to 2.36.

For the sequence “GTAGAGTCTTGGGTTCTAACCTGTTGCCT (site GCAGAGTCTAG)”, the “recombinant barcode read abundance (log10)” value came out at 1.94.

Consider “GTAGAGTCTTGGGTTCTAACCTGTTGCCT (site GGAGAGTCTAG)”, for which the “recombinant barcode read abundance (log10)” value was 0.239.

For the sequence “GTAGAGTCTTGGGTTCTAACCTGTTGCCT (site GTAGAGTCTAG)”, the “recombinant barcode read abundance (log10)” value was found to be 2.84.

For the sequence “GTAGCAGCTTGGGTTCTAACCTGTTGCTC (site CTAGTAGCTGA)”, the “recombinant barcode read abundance (log10)” value was determined as 0.146.

Take “GTAGCAGCTTGGGTTCTAACCTGTTGCTC (site GTAGCAGCTGA)”: the “recombinant barcode read abundance (log10)” value was 1.4.

For “GTAGCGACTTGGGTTCTAACCTGTTGCCT (site ATAGGGACTAG)”, the “recombinant barcode read abundance (log10)” value turned out to be 0.149.

Regarding “GTAGCGACTTGGGTTCTAACCTGTTGCCT (site GTAGCGACTAG)”, the “recombinant barcode read abundance (log10)” value was found to be 1.43.

As for “GTAGGAACTTGGGTTCTAACCTGTTGCTG (site CGGCTGTCTAG)”, the “recombinant barcode read abundance (log10)” value came to 0.0122.

“GTAGGAACTTGGGTTCTAACCTGTTGCTG (site GTAGGAACTCA)”: the “recombinant barcode read abundance (log10)” value came out at 2.54.

As for “GTAGGGACTTGGGTTCTAACCTGTTGCCG (site AGCCCTTCTAA)”, the “recombinant barcode read abundance (log10)” value came to 0.192.

“GTAGGGACTTGGGTTCTAACCTGTTGCCG (site GTAGGGACTCG)”: the “recombinant barcode read abundance (log10)” value came out at 2.47.

“GTAGTACCTTGGGTTCTAACCTGTTGCCT (site GTAGTAACTAG)”: the “recombinant barcode read abundance (log10)” value amounted to 0.0694.

With “GTAGTACCTTGGGTTCTAACCTGTTGCCT (site GTAGTACCTAG)”, the “recombinant barcode read abundance (log10)” value is 1.73.

Regarding “GTAGTACCTTGGGTTCTAACCTGTTGCCT (site GTAGTAGCTAG)”, the “recombinant barcode read abundance (log10)” value came to 0.247.

In the case of “GTAGTACCTTGGGTTCTAACCTGTTGCCT (site GTAGTATCTAG)”, the “recombinant barcode read abundance (log10)” value came to 0.545.

As to “GTAGTCCCTTGGGTTCTAACCTGTTGCCT (site GAAGTCTCTAG)”, the “recombinant barcode read abundance (log10)” value was 0.118.

As to “GTAGTCCCTTGGGTTCTAACCTGTTGCCT (site GTAGTCCCTAG)”, the “recombinant barcode read abundance (log10)” value worked out at 2.06.

“GTAGTGTCTTGGGTTCTAACCTGTTGCTA (site CTAGTGTCTTA)”: the “recombinant barcode read abundance (log10)” value was 1.61.

As for “GTAGTGTCTTGGGTTCTAACCTGTTGCTA (site GTAGTGTCTTA)”, the “recombinant barcode read abundance (log10)” value came to 2.37.

On to “GTATCAACTTGGGTTCTAACCTGTTGCCT (site GTATCAACTAG)”, for which the “recombinant barcode read abundance (log10)” value came to 0.35.

Consider “GTATCAACTTGGGTTCTAACCTGTTGCCT (site GTATCACCTAG)”, for which the “recombinant barcode read abundance (log10)” value turned out to be 0.0908.

On to “GTATCAACTTGGGTTCTAACCTGTTGCCT (site GTATCAGCTAG)”, for which the “recombinant barcode read abundance (log10)” value was found to be 0.0211.

For “GTATCAACTTGGGTTCTAACCTGTTGCCT (site GTATCATCTAG)”, the “recombinant barcode read abundance (log10)” value turned out to be 0.

Take “GTATCACCTTGGGTTCTAACCTGTTGCCT (site GTATCAACTAG)”: the “recombinant barcode read abundance (log10)” value was 0.19.

With “GTATCACCTTGGGTTCTAACCTGTTGCCT (site GTATCACCTAG)”, the “recombinant barcode read abundance (log10)” value came out at 1.44.

Regarding “GTATCACCTTGGGTTCTAACCTGTTGCCT (site GTATCAGCTAG)”, the “recombinant barcode read abundance (log10)” value worked out at 0.187.

Take “GTATCACCTTGGGTTCTAACCTGTTGCCT (site GTATCATCTAG)”: the “recombinant barcode read abundance (log10)” value turned out to be 0.0641.

Turning to “GTATGACCTTGGGTTCTAACCTGTTGCCT (site GTATGAACTAG)”, the “recombinant barcode read abundance (log10)” value amounted to 0.0455.

In the case of “GTATGACCTTGGGTTCTAACCTGTTGCCT (site GTATGACCTAG)”, the “recombinant barcode read abundance (log10)” value was 1.86.

With “GTATGACCTTGGGTTCTAACCTGTTGCCT (site GTATGAGCTAG)”, the “recombinant barcode read abundance (log10)” value was found to be 0.0609.

“GTATGACCTTGGGTTCTAACCTGTTGCCT (site GTATGATCTAG)”: the “recombinant barcode read abundance (log10)” value was 0.217.

For the sequence “GTATGAGCTTGGGTTCTAACCTGTTGCCT (site GTATGAACTAG)”, the “recombinant barcode read abundance (log10)” value amounted to 0.475.

Turning to “GTATGAGCTTGGGTTCTAACCTGTTGCCT (site GTATGACCTAG)”, the “recombinant barcode read abundance (log10)” value came out at 0.0478.

As to “GTATGAGCTTGGGTTCTAACCTGTTGCCT (site GTATGAGCTAG)”, the “recombinant barcode read abundance (log10)” value worked out at 1.5.

Regarding “GTATGAGCTTGGGTTCTAACCTGTTGCCT (site GTATGATCTAG)”, the “recombinant barcode read abundance (log10)” value was 0.135.

In the case of “GTATGCCCTTGGGTTCTAACCTGTTGCCT (site GTATGCCCTAG)”, the “recombinant barcode read abundance (log10)” value was 1.38.

For “GTATGCCCTTGGGTTCTAACCTGTTGCCT (site GTGGGCCCTAG)”, the “recombinant barcode read abundance (log10)” value was 0.

With “GTATGGTCTTGGGTTCTAACCTGTTGCGT (site GTATCGTCTAG)”, the “recombinant barcode read abundance (log10)” value worked out at 0.0442.

For “GTATGGTCTTGGGTTCTAACCTGTTGCGT (site GTATGGTCTAC)”, the “recombinant barcode read abundance (log10)” value stood at 2.98.

“GTATGTACTTGGGTTCTAACCTGTTGCAT (site GTATGATCTAT)”: the “recombinant barcode read abundance (log10)” value is 0.206.

For “GTATGTACTTGGGTTCTAACCTGTTGCAT (site GTATGTACTAT)”, the “recombinant barcode read abundance (log10)” value amounted to 0.435.

For “GTCAACTCTTGGGTTCTAACCTGTTGCCT (site GTAAACTCTAG)”, the “recombinant barcode read abundance (log10)” value worked out at 0.0267.

Regarding “GTCAACTCTTGGGTTCTAACCTGTTGCCT (site GTCAACTCTAG)”, the “recombinant barcode read abundance (log10)” value was 2.06.

Take “GTCAACTCTTGGGTTCTAACCTGTTGCCT (site GTGAACTCTAG)”: the “recombinant barcode read abundance (log10)” value stood at 0.00674.

For “GTCAACTCTTGGGTTCTAACCTGTTGCCT (site GTTAACTCTAG)”, the “recombinant barcode read abundance (log10)” value was 0.13.

As for “GTCAATCCTTGGGTTCTAACCTGTTGCGG (site CGACGAACTAG)”, the “recombinant barcode read abundance (log10)” value is 0.138.

As to “GTCAATCCTTGGGTTCTAACCTGTTGCGG (site GTCAATCCTCC)”, the “recombinant barcode read abundance (log10)” value was determined as 1.25.

“GTCAATCCTTGGGTTCTAACCTGTTGCGT (site GCCACTCCTAC)”: the “recombinant barcode read abundance (log10)” value is 0.0762.

On to “GTCAATCCTTGGGTTCTAACCTGTTGCGT (site GTCAATCCTAC)”, for which the “recombinant barcode read abundance (log10)” value is 1.98.

In the case of “GTCACCTCTTGGGTTCTAACCTGTTGCCT (site GTCACCTCTAG)”, the “recombinant barcode read abundance (log10)” value amounted to 1.8.

As to “GTCACCTCTTGGGTTCTAACCTGTTGCCT (site GTCCCCTCTAG)”, the “recombinant barcode read abundance (log10)” value is 0.0973.

Take “GTCACCTCTTGGGTTCTAACCTGTTGCCT (site GTCGCCTCTAG)”: the “recombinant barcode read abundance (log10)” value was found to be 0.0645.

With “GTCACCTCTTGGGTTCTAACCTGTTGCCT (site GTCTCCTCTAG)”, the “recombinant barcode read abundance (log10)” value is 0.105.

Take “GTCACTACTTGGGTTCTAACCTGTTGCGT (site GTAACTACTCC)”: the “recombinant barcode read abundance (log10)” value amounted to 0.182.

As for “GTCACTACTTGGGTTCTAACCTGTTGCGT (site GTCACTACTAC)”, the “recombinant barcode read abundance (log10)” value came out at 0.517.

“GTCAGCCCTTGGGTTCTAACCTGTTGCGG (site GTCAGCCCTCC)”: the “recombinant barcode read abundance (log10)” value is 2.53.

Turning to “GTCAGCCCTTGGGTTCTAACCTGTTGCGG (site GTTAGCCCTCC)”, the “recombinant barcode read abundance (log10)” value came to 0.365.

As for “GTCCCTCCTTGGGTTCTAACCTGTTGCGT (site GTCCCTCCTAA)”, the “recombinant barcode read abundance (log10)” value was 0.0918.

As for “GTCCCTCCTTGGGTTCTAACCTGTTGCGT (site GTCCCTCCTAC)”, the “recombinant barcode read abundance (log10)” value was determined as 2.74.

For “GTCCCTCCTTGGGTTCTAACCTGTTGCGT (site GTCCCTCCTAG)”, the “recombinant barcode read abundance (log10)” value came to 0.156.

Consider “GTCCCTCCTTGGGTTCTAACCTGTTGCGT (site GTCCCTCCTAT)”, for which the “recombinant barcode read abundance (log10)” value was 1.34.

For the sequence “GTCCTACCTTGGGTTCTAACCTGTTGCAA (site GTCCTAACTGT)”, the “recombinant barcode read abundance (log10)” value was 0.42.

These data come from the supplement of paper PMC11208160.
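Note: IS621 recombinase and bridge RNA in Escherichia coli cells.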
